# Molecular target: T1, hCRTH2 receptor (Homo sapiens, UniProt Q9Y5Y4)
# T1 construct: expressed in transfected cells; host or cells: HEK293
# T1 sequence (Q9Y5Y4 1-395): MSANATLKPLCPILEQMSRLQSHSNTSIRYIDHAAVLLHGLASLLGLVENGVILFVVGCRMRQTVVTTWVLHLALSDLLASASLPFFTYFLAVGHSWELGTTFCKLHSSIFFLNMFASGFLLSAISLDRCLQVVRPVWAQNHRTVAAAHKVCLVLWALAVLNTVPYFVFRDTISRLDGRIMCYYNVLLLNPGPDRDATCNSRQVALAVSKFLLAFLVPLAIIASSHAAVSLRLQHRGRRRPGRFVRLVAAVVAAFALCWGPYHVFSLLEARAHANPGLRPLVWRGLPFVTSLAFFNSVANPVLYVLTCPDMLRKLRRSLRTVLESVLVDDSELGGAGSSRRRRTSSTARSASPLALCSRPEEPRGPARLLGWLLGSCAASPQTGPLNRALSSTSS
# Assay: Radioligand displacement assay (3H-PGD2) on hCRTH2 receptor membranes
# Type: binding
# Details: antagonistic activity; 3H-PGD2 displacement on HEK293-hCRTH2 membrane fragments
# Method: First, recombinant HEK293-hCRTH2 cells were detached from culture plates into 5 ml buffer A/plate (Buffer A: 5 mM Tris, 1 mM MgCl2-6H2O pH=7.4) using a rubber policeman. Cells were then transferred into centrifugation tubes and centrifuged for 5 min at 400 g. The cell pellet was resuspended in the same buffer and tubes were frozen at −80° C. Cells were thawed and membrane fragments were generated by homogenization using a polytron homogenizer (30 seconds). The membrane fragments were then centrifuged at 3000 g for 20 minutes and resuspended in buffer C (Buffer C: 75 mM Tris, 25 mM MgCl2, 250 mM Saccharose pH 7.4). Aliquots of membrane fragments were stored at −20° C.
# Binding assay was performed in a final assay volume of 250 μl. First, 25 μl of test compound, previously diluted in Binding-Buffer (Binding-Buffer: 50 mM Tris-Base, 100 mM NaCl, 1 mM EDTA, 0.1% BSA (protease free), 0.01% NaN3, 10 mM MnCl2, pH 7.0) was placed into each well. After addition of 75 μl Binding-Buffer, 50 μl of the radioligand ^3H-PGD2 (at 2.5 nM (220.000 dpm/well) from ANAWA ART0662) was added to each well. Binding assay was started by addition of 100 μl CRTH2 membrane fragments, reaching a final concentration of 20 μg/well. For non-specific binding, PGD2 was added to the reaction mixture to […] final concentration.
# This assay mix was incubated for 90 minutes at room temperature and then filtered through a GF/C filter 96-well plate which was pre-soaked for 3 hours in 0.5% polyethyleneimine (PEI). The filter-wells were washed three times with ice cold Binding-Buffer. Then, 40 μl of Microscint-40 (Packard) was added to each well and the retained radioactivity quantified in a Topcount (Packard).
row,Compound,IC50 [nM]
1,"O=C(O)COc1ccc(F)cc1C1c2cccc(Cl)c2CCN1C(=O)OCc1ccccc1 (racemic) [Example 38, (±)-1-(2-Carboxymethoxy-5-fluoro-phenyl)-5-chloro-3,4-dihydro-1H-isoquinoline-2-carboxylic acid benzyl ester]",20.8
2,"Cc1cccc2c1CCN(C(=O)OCc1ccccc1)C2c1cc(F)ccc1OCC(=O)O (racemic) [Example 39, (±)-1-(2-Carboxymethoxy-5-fluoro-phenyl)-5-methyl-3,4-dihydro-1H-isoquinoline-2-carboxylic acid benzyl ester]",22.2
3,"O=C(O)COc1ccc(F)cc1C1c2ccc(F)c(Br)c2CCN1C(=O)OCc1ccccc1 (racemic) [Example 40, (±)-5-Bromo-1-(2-carboxymethoxy-5-fluoro-phenyl)-6-fluoro-3,4-dihydro-1H-isoquinoline-2-carboxylic acid benzyl ester]",23
4,"O=C(O)COc1ccc(F)cc1C1c2cc(F)ccc2CCN1C(=O)OCc1ccccc1 (racemic) [Example 41, (±)-1-(2-Carboxymethoxy-5-fluoro-phenyl)-7-fluoro-3,4-dihydro-1H-isoquinoline-2-carboxylic acid benzyl ester]",24.8
5,"O=C(O)COc1ccc(F)cc1C1c2cc(F)cc(F)c2CCN1C(=O)OCc1ccccc1 (racemic) [Example 42, (±)-1-(2-Carboxymethoxy-5-fluoro-phenyl)-5,7-difluoro-3,4-dihydro-1H-isoquinoline-2-carboxylic acid benzyl ester]",6.84
6,"O=C(O)COc1ccc(Cl)cc1C1c2cc(F)cc(F)c2CCN1C(=O)OCc1ccccc1 (racemic) [Example 43, (±)-1-(2-Carboxymethoxy-5-chloro-phenyl)-5,7-difluoro-3,4-dihydro-1H-isoquinoline-2-carboxylic acid benzyl ester]",4.94
7,"N#Cc1ccc(OCC(=O)O)c(C2c3cc(F)cc(F)c3CCN2C(=O)OCc2ccccc2)c1 (racemic) [Example 44, (±)-1-(2-Carboxymethoxy-5-cyano-phenyl)-5,7-difluoro-3,4-dihydro-1H-isoquinoline-2-carboxylic acid benzyl ester]",8.34
8,"O=C(O)COc1ccc(F)cc1C1c2ccccc2CCN1C(=O)Cc1noc2ccccc12 (racemic) [Example 45, (±)-{2-[2-(2-Benzo[d]isoxazol-3-yl-acetyl)-1,2,3,4-tetrahydro-isoquinolin-1-yl]-4-fluoro-phenoxy}-acetic acid]",369
9,"CC(C)(CC(=O)N1CCc2ccccc2C1c1cc(F)ccc1OCC(=O)O)c1ccccc1 (racemic) [Example 46, (±)-{4-Fluoro-2-[2-(3-methyl-3-phenyl-butyryl)-1,2,3,4-tetrahydro-isoquinolin-1-yl]-phenoxy}-acetic acid]",916
10,"O=C(O)COc1ccc(F)cc1C1c2ccccc2CCN1C(=O)Cc1cccc2ccccc12 (racemic) [Example 47, (±)-{4-Fluoro-2-[2-(2-naphthalen-1-yl-acetyl)-1,2,3,4-tetrahydro-isoquinolin-1-yl]-phenoxy}-acetic acid]",198
11,"O=C(O)COc1ccc(F)cc1C1c2ccccc2CCN1C(=O)Cc1ccc2cccnc2c1 (racemic) [Example 48, (±)-{4-Fluoro-2-[2-(2-quinolin-7-yl-acetyl)-1,2,3,4-tetrahydro-isoquinolin-1-yl]-phenoxy}-acetic acid]",287
12,"O=C(O)COc1ccc(F)cc1C1c2ccccc2CCN1C(=O)Cc1ccc2ncccc2c1 (racemic) [Example 49, (±)-{4-Fluoro-2-[2-(2-quinolin-6-yl-acetyl)-1,2,3,4-tetrahydro-isoquinolin-1-yl]-phenoxy}-acetic acid]",35.7
13,O=C(O)COc1ccc(F)cc1C1c2ccccc2CCN1C(=O)Cc1ccc2c(c1)OCCO2 (racemic) [Example 50],182
14,"O=C(O)COc1ccc(F)cc1C1c2ccccc2CCN1C(=O)CCc1c[nH]c2ccccc12 (racemic) [Example 51, (±)-{4-Fluoro-2-[2-(3-1H-indol-3-yl-propionyl)-1,2,3,4-tetrahydro-isoquinolin-1-yl]-phenoxy}-acetic acid]",30.1
15,"CCn1c(C)c(CCC(=O)N2CCc3ccccc3C2c2cc(F)ccc2OCC(=O)O)c2ccccc21 (racemic) [Example 52, (±)-(2-{2-[3-(1-Ethyl-2-methyl-1H-indol-3-yl)-propionyl]-1,2,3,4-tetrahydro-isoquinolin-1-yl}-4-fluoro-phenoxy)-acetic acid]",600
16,"O=C(O)COc1ccc(F)cc1C1c2ccccc2CCN1C(=O)CCc1c(Cl)cccc1Cl (racemic) [Example 53, (±)-(2-{2-[3-(2,6-Dichloro-phenyl)-propionyl]-1,2,3,4-tetrahydro-isoquinolin-1-yl}-4-fluoro-phenoxy)-acetic acid]",877
17,O=C(O)COc1ccc(F)cc1C1c2ccccc2CCN1C(=O)CCOc1ccccc1F (racemic) [Example 54],32.2
18,"Cc1nnnn1-c1ccc(CC(=O)N2CCc3ccccc3C2c2cc(F)ccc2OCC(=O)O)cc1 (racemic) [Example 55, (±)-[4-Fluoro-2-(2-{2-[4-(5-methyl-tetrazol-1-yl)-phenyl]-acetyl}-1,2,3,4-tetrahydro-isoquinolin-1-yl)-phenoxy]-acetic acid]",800
19,"O=C(O)COc1ccc(F)cc1C1c2ccccc2CCN1C(=O)CCN1C(=O)COc2ccc(Cl)cc21 (racemic) [Example 56, (±)-(2-{2-[3-(6-Chloro-3-oxo-2,3-dihydro-benzo[1,4]oxazin-4-yl)-propionyl]-1,2,3,4-tetrahydro-isoquinolin-1-yl}-4-fluoro-phenoxy)-acetic acid]",735
20,"Cc1nc(CC(=O)N2CCc3ccccc3C2c2cc(F)ccc2OCC(=O)O)cs1 (racemic) [Example 57, (±)-(4-Fluoro-2-{2-[2-(2-methyl-thiazol-4-yl)-acetyl]-1,2,3,4-tetrahydro-isoquinolin-1-yl}-phenoxy)-acetic acid]",730
21,"O=C(O)COc1ccc(F)cc1C1c2ccccc2CCN1C(=O)Cc1csc2ccccc12 (racemic) [Example 58, (±)-{2-[2-(2-Benzo[b]thiophen-3-yl-acetyl)-1,2,3,4-tetrahydro-isoquinolin-1-yl]-4-fluoro-phenoxy}-acetic acid]",123
22,"O=C(O)COc1ccc(F)cc1C1c2ccccc2CCN1C(=O)CCc1nc2ccccc2s1 (racemic) [Example 59, (±)-{2-[2-(3-Benzothiazol-2-yl-propionyl)-1,2,3,4-tetrahydro-isoquinolin-1-yl]-4-fluoro-phenoxy}-acetic acid]",794
23,O=C(O)COc1ccc(F)cc1C1c2ccccc2CCN1C(=O)Cc1ccc(-c2ccccc2)cc1 (racemic) [Example 60],577
24,"O=C(O)COc1ccc(F)cc1C1c2ccccc2CCN1C(=O)Cn1ccc2ccccc21 (racemic) [Example 61, (±)-{4-Fluoro-2-[2-(2-indol-1-yl-acetyl)-1,2,3,4-tetrahydro-isoquinolin-1-yl]-phenoxy}-acetic acid]",846
25,O=C(O)COc1ccc(F)cc1C1c2ccccc2CCN1C(=O)Cc1nc2ccccc2[nH]1 (racemic) [Example 62],794
26,"O=C(O)COc1ccc(F)cc1C1c2ccccc2CCN1C(=O)CN1Cc2ccccc2C1 (racemic) [Example 63, (±)-{2-[2-(2-1,3-Dihydro-isoindol-2-yl-acetyl)-1,2,3,4-tetrahydro-isoquinolin-1-yl]-4-fluoro-phenoxy}-acetic acid]",871

# — patent US8575158B2, “1-phenyl-substituted heterocyclyl derivatives and their use as prostaglandin D2 receptor modulators” (Actelion Pharmaceuticals Ltd., priority 2010, dated 2013)
